This is an account of results in patent publication US5085991A, “Process of preparing purified aqueous indole solution” (Mitsui Toatsu Chemicals, Inc., priority 1987, dated 1992).

SMILES strings stand for the structures. Read-outs that look alike come from different tables or passages of the source.

In one series the target is tryptophan synthase (Escherichia coli, UniProt P0A879). The experiment in a line: Activity of immobilized tryptophan synthase source after standing in aqueous solutions of organic impurities. Particulars: for activity at 20 µg/mL: impurity 20 ppm; for activity at 20 µg/mL / activity at 50 µg/mL / activity at 200 µg/mL / activity at 500 µg/mL / activity at 1000 µg/mL: 30° C., pH 8.5; for activity at 20 µg/mL / activity at 50 µg/mL / activity at 500 µg/mL / activity at 1000 µg/mL: ratio to enzyme left in reference solution; for activity at 50 µg/mL: impurity 50 ppm; for activity at 200 µg/mL: impurity 200 ppm, ratio to enzyme left in reference solution without organic substance; for level at which the impurity inhibits tryptophan synthase: enzyme synthesizing tryptophan from indole and L-serine; for activity at 500 µg/mL: impurity 500 ppm; for activity at 1000 µg/mL: impurity 1000 ppm. Format: biochemical, Escherichia coli MT-10232 (FERM BP-19). As for the experimental part: Escherichia coli MT-10232 (FERM BP-19), which is a tryptophan synthase-producing bacterium, was inoculated to 100 ml of the culture medium having the composition shown in Table 2 in a 500 ml flask, and was incubated at 35° C. for 24 hours. Two hundred milliliters (in two flasks) of the culture medium was inoculated to 15 1 of the culture medium having the composition shown in Table 3 in 30 1 of jar fermenter and was incubated at 35° C., pH 6.8 (adjusted with 28% aqueous ammonia) for 30 hours.
After the culture, the culture medium was centrifuged to collect 600 g wet weight of the bacterial cells. The cells were placed in a sealed container and restored in a refrigerator at 4° C., and were used for preparing the immobilized enzyme source.
One part of the above-described wet bacterial cells and one part of isotonic sodium chloride solution were mixed with stirring. On the other hand, 7.76 parts of distilled water and 0.24 parts of sodium alginate (NSPLL manufactured by Kibun Food Chemifa, Co., Ltd.) were mixed with stirring and pH thereof was adjusted to 8.5 with sodium hydroxide.
Two parts of the suspension of the cells and 8 parts of the sodium alginate solution were mixed with stirring and the resulting mixture was fed into a syringe and was dropped into a gelling solution from the tip of a needle with an inner diameter of 0.5 mm to 0.8 mm.
The particles formed by dropping the mixture into the gelling solution was matured under stirring in the gelling solution to obtain immobilized enzyme source.
To each of the aqueous solutions with a volume of 100 ml containing aniline, N-ethylaniline, o-ethylaniline, o-toluidine, 3-methylindole or 2-ethylindole in the amount shown in Table 4, […] of calcium chloride dihydrate and 1 mg of pyridoxal-5'-phosphate were added, and the pH thereof was adjusted to 8.5 with aqueous ammonia.
Further, as a reference solution, 100 ml of distilled water containing no organic substance was subjected to the same procedure as described above and the immobilized enzyme source was added thereto as mentioned above, followed by being left to stand at 30° C.
Twenty four hours later and 96 hours later, 1 g of immobilized enzyme source was removed from each of the solutions and the enzyme activity was determined. The ratio of the activity of the enzyme left in the solution of the organic substance to the activity of the enzyme left in the reference solution was determined and is shown in Table 4.
The enzyme activity was determined as follows:
Ten milliliters of reaction medium containing indole, L-serine, pyridoxal-5'-phosphate (PLP) and 0.3 g of the immobilized enzyme source was prepared and the reaction was conducted at 35° C. in a shaking incubator for 1 hour with shaking. The produced L-tryptophan was analyzed with high performance liquid chromatography.

For series [1] the following is noted: room temperature; cited from earlier work.
Where [2] appears, read: 24 h, read-out: Activity Ratio 24 Hours Later.
The mark [3] stands for this setting: 96 h, read-out: Activity Ratio 96 Hours Later.

Sequence of tryptophan synthase (P0A879 2-397): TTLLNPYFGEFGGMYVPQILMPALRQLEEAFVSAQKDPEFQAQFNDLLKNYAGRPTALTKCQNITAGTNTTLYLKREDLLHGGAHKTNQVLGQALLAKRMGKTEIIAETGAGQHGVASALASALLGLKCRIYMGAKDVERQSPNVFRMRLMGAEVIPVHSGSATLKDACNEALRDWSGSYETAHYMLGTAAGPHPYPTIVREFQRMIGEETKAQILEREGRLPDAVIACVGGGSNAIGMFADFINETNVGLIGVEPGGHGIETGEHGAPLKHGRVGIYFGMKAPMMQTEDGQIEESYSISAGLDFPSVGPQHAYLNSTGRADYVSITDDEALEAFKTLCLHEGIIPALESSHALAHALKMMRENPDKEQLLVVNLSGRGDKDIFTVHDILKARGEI
Sequence of tryptophan synthase (P0A877 whole entry, further chain): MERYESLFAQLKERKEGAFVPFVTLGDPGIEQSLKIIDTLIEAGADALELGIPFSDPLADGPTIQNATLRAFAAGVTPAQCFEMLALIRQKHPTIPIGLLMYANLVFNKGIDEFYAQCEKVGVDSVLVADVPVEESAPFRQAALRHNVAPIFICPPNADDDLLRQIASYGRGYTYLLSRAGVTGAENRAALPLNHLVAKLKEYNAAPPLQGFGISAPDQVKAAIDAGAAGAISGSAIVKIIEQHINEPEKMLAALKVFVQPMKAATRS

Regarding `CCc1cc2ccccc2[nH]1` [2-ethylindole], at tryptophan synthase (setting [2]), the activity at 20 µg/mL came out at 93%, the activity at 50 µg/mL was 73% and the activity at 200 µg/mL came to 68%. Moreover, at tryptophan synthase (setting [3]), the activity at 20 µg/mL was 71%, the activity at 50 µg/mL is 54% and the activity at 200 µg/mL was found to be 48%. Further, the “level at which the impurity inhibits tryptophan synthase” value on tryptophan synthase is on record as “about 20 ppm”.
For the molecule `Cc1c[nH]c2ccccc12` [3-methylindole], the results for the activity at 200 µg/mL on tryptophan synthase (setting [2]) and on tryptophan synthase (setting [3]) were 94% and 89%, respectively. For the same molecule, the results for the activity at 500 µg/mL at tryptophan synthase (setting [2]) and on tryptophan synthase (setting [3]) were 94% and 84%, respectively. In addition, the “level at which the impurity inhibits tryptophan synthase” value at tryptophan synthase is listed as “about 200 ppm”.
As to `Nc1ccccc1` [Aniline], the values for the activity at 200 µg/mL at tryptophan synthase (setting [2]) and at tryptophan synthase (setting [3]) were 98% and 101%, respectively. The results for the activity at 1000 µg/mL on tryptophan synthase (setting [2]) and at tryptophan synthase (setting [3]) were 100% and 82%, respectively.
As to `CCNc1ccccc1` [N-ethylaniline], on tryptophan synthase (setting [2]), the activity at 200 µg/mL came out at 104% and the activity at 1000 µg/mL is 100%. Further, on tryptophan synthase (setting [3]), the activity at 200 µg/mL turned out to be 97% and the activity at 1000 µg/mL was found to be 89%.
In the case of `c1ccc2[nH]ccc2c1` [indole], the solubility in water in series [1] is 3000 to 4000 µg/mL.
In the case of `CCc1ccccc1N` [o-ethylaniline], on tryptophan synthase (setting [2]), the activity at 200 µg/mL was 90% and the activity at 1000 µg/mL worked out at 71%. Also, on tryptophan synthase (setting [3]), the activity at 200 µg/mL was 77% and the activity at 1000 µg/mL came to 50%. The “level at which the impurity inhibits tryptophan synthase” value at tryptophan synthase is “about 200 ppm”.
With `Cc1ccccc1N` [o-toluidine], at tryptophan synthase (setting [2]), the activity at 200 µg/mL amounted to 97% and the activity at 1000 µg/mL was determined as 88%. At tryptophan synthase (setting [3]), the activity at 200 µg/mL turned out to be 106% and the activity at 1000 µg/mL is 80%.
